{"source": "EPA's ToxValDB 9.5", "key": {"Rattus norvegicus": {"tested_on": "Rattus norvegicus", "conditions": "oral"}, "Mus musculus": {"tested_on": "Mus musculus", "conditions": "oral"}, "[1]": {"conditions": "short-term, duration: 1 weeks, diet, M, Wistar, Body Weight: ~32% weight loss"}, "[2]": {"conditions": "short-term, duration: 28 days, F, Sprague-Dawley, Body Weight: Decreased body weight gain (21%)"}, "[3]": {"conditions": "short-term, duration: 28 days, F, Sprague-Dawley, Hematological: Decreased MCH and MCHC + Immunotoxicological: Decreased phagocytosis by fixed tissue macrophages in the liver"}, "[4]": {"conditions": "short-term, duration: 28 days, F, Sprague-Dawley, Hepatic: Single cell necrosis"}, "[5]": {"conditions": "acute, duration: 1 days, gavage, F, Body Weight: 12% decreased body weight 30 days post-exposure + Endocrine: 2-fold increase in T3 and 4-fold increase in T4 levels 30 days …"}, "[6]": {"conditions": "developmental, duration: 10 days, gavage, F, Body Weight: No weight gain at 6.4 mg/kg/day and weight loss at 12.8 mg/kg/day (net change of -2.4)"}, "[7]": {"conditions": "developmental, duration: 10 days, gavage, F, Developmental: 18-22% decreases in fetal weight per litter at ?1 mg/kg/day / decreases in live fetuses per litter at 12.8 mg/kg/day (4.6 …"}, "[8]": {"conditions": "short-term, duration: 4 weeks, F, B6C3F1, Immunotoxicological: Decreases in splenic T-cells, T-cell subsets, and macrophages"}}, "data": [{"smiles": "O=C(O)C(F)(F)C(F)(F)C(F)(F)C(F)(F)C(F)(F)C(F)(F)C(F)(F)C(F)(F)C(F)(F)F", "note": "[Perfluorodecanoic acid]", "values": [{"measurement": "LOAEL", "setting": "Rattus norvegicus; acute, duration: 1 days, gavage, M, Wistar, Body Weight: 8% weight loss was observed 10-days post-exposure", "value": 50, "unit": "mg/kg-day"}, {"measurement": "NOAEL", "setting": "Rattus norvegicus; acute, duration: 1 days, gavage, M, Wistar, Neurological: No alteration in performance on novel object recognition test", "value": 50, "unit": "mg/kg-day"}, {"measurement": "LOAEL", "setting": "Rattus norvegicus; [1]", "value": 9.5, "unit": "mg/kg-day"}, {"measurement": "NOAEL", "setting": "Rattus norvegicus; [1]", "value": 4.7, "unit": "mg/kg-day"}, {"measurement": "NOAEL", "setting": "Rattus norvegicus; short-term, duration: 1 weeks, diet, M, Wistar, Hepatic: Increases in liver weight at ?2.4 mg/kg/day / increases in hepatic cholesterol at 9.5 mg/kg/day", "value": 9.5, "unit": "mg/kg-day"}, {"measurement": "LOAEL", "setting": "Rattus norvegicus; [2]", "value": 1, "unit": "mg/kg-day"}, {"measurement": "NOAEL", "setting": "Rattus norvegicus; [2]", "value": 0.5, "unit": "mg/kg-day"}, {"measurement": "LOAEL", "setting": "Rattus norvegicus; [3]", "value": 0.25, "unit": "mg/kg-day"}, {"measurement": "NOAEL", "setting": "Rattus norvegicus; [3]", "value": 0.125, "unit": "mg/kg-day"}, {"measurement": "LOAEL", "setting": "Rattus norvegicus; [4]", "value": 0.5, "unit": "mg/kg-day"}, {"measurement": "NOAEL", "setting": "Rattus norvegicus; [4]", "value": 0.25, "unit": "mg/kg-day"}, {"measurement": "LOAEL", "setting": "Mus musculus; [5]", "value": 80, "unit": "mg/kg-day"}, {"measurement": "NOAEL", "setting": "Mus musculus; [5]", "value": 40, "unit": "mg/kg-day"}, {"measurement": "NOAEL", "setting": "Mus musculus; acute, duration: 1 days, gavage, F, Cardiovascular: No histological alterations in the heart 30 days post-exposure / decreased relative heart weight at 80 mg/kg/day + Hepatic…", "value": 80, "unit": "mg/kg-day"}, {"measurement": "LOAEL", "setting": "Mus musculus; acute, duration: 1 days, gavage, F, Death: LD50 in 30-day observation period", "value": 120, "unit": "mg/kg-day"}, {"measurement": "NOAEL", "setting": "Mus musculus; acute, duration: 1 days, gavage, F, Hepatic: Increase in hepatic lipids and liver weight 2 days post-exposure at 40 mg/kg/day", "value": 160, "unit": "mg/kg-day"}, {"measurement": "LOAEL", "setting": "Mus musculus; acute, duration: 1 days, gavage, F, Immunotoxicological: 28% decrease in relative spleen weight at 80 mg/kg/day / atrophy and lymphoid depletion in thymus and spleen at 160 mg…", "value": 160, "unit": "mg/kg-day"}, {"measurement": "NOAEL", "setting": "Mus musculus; developmental, duration: 1 days, gavage, M, CD1, Developmental: No alteration in spontaneous activity or habituation at 2-4 months of age", "value": 10.8, "unit": "mg/kg-day"}, {"measurement": "LOAEL", "setting": "Mus musculus; [6]", "value": 6.4, "unit": "mg/kg-day"}, {"measurement": "NOAEL", "setting": "Mus musculus; [6]", "value": 3, "unit": "mg/kg-day"}, {"measurement": "LOAEL", "setting": "Mus musculus; developmental, duration: 10 days, gavage, F, Body Weight: No weight gain at 6.4 mg/kg/day and weight loss at 12.8 mg/kg/day (net change of -2.4) + Developmental: 18-22% decreases in …", "value": 12.8, "unit": "mg/kg-day"}, {"measurement": "LOAEL", "setting": "Mus musculus; [7]", "value": 1, "unit": "mg/kg-day"}, {"measurement": "NOAEL", "setting": "Mus musculus; [7]", "value": 0.3, "unit": "mg/kg-day"}, {"measurement": "NOAEL", "setting": "Mus musculus; short-term, duration: 4 weeks, F, B6C3F1", "value": 5, "unit": "mg/kg-day"}, {"measurement": "LOAEL", "setting": "Mus musculus; [8]", "value": 1.25, "unit": "mg/kg-day"}, {"measurement": "NOAEL", "setting": "Mus musculus; [8]", "value": 0.625, "unit": "mg/kg-day"}, {"measurement": "LOAEL", "setting": "Mus musculus; short-term, duration: 10 days, diet, M, Body Weight: 33% weight loss", "value": 78, "unit": "mg/kg-day"}, {"measurement": "NOAEL", "setting": "Mus musculus; short-term, duration: 10 days, diet, M, Hepatic: 36% increase in liver weight", "value": 78, "unit": "mg/kg-day"}]}]}
